In patent publication US4820717A, “Antimicrobial aromatic derivatives substituted by an (omega amino) alkanol group and compositions containing them” (priority 1985, dated 1989):
In brackets after ≈: the same amount, converted by molar mass.

Legend:
[1] = tested on: Escherichia Coli CNCM 54125; test: Bactericidal activity (MBC), strain 1; assay type: cell-based; conditions: 20 min, strain 1, 20 minutes of contact, read-out: Minimum bactericidal concentration (MBC)
Excerpt: (§1) The bactericidal activity of the products according to the invention has been analyzed on various strains by the method described hereafter:
(§2) A bacterial inoculum is placed in contact with different dilutions of the product to be tested, and this for a limited period of time. At the end of contact, an aliquot part of the mixture bacterial suspension/product is deposited on the surface of an agar culture medium containing an agent neutralizing the antibacterial activity of the product. The bactericidal concentration retained is the smallest concentration of the product from which bacteria stop growing. Said concentration is expressed in μg/ml.
(§3) The bacterial strains selected for the analysis are:
1--Escherichia Coli CNCM 54125;
(§4) The second strain is supported on a Worgel Fergusson medium, the other strains being supported on Tryptic Soy Agar-Difco (TSA) commercialized by Difco.
(§5) After a 24-hour culture period at 37° C., the microbial growth is collected by means of glass beads and of 10 ml of diluent containing 1 g of tryptone and 8.5 g of sodium chloride in 1000 ml of distilled water. The formed suspension is stirred and the percentage of light transmission at 620 nm is measured with a spectrophotometer:
(§6) The bacterial inoculum corresponds to a 1/20th dilution of this bacterial suspension.
(§7) Plates equipped with cupules receive different dilutions of the product to be analyzed. These dilutions are placed in contact with the different bacterial suspensions by means of a multiple-center inoculator. After 20 minutes of contact, aliquot parts are transferred by means of said inoculator on the surface of an agar medium (TSA) in Petri dishes, containing an activity-neutralizing agent, namely 20 g of lubrol W, 25 g of Tween 80 and 2.5 g of sodium thiosulfate in 1000 ml of TSA (Difco). The efficiency of the neutralizing agent is controlled for each product to be analyzed by depositing on the surface of the culture medium an aliquot part of the dilution of the product to be analyzed. After drying, the corresponding inoculum is deposited in the same place. An inoculum control is performed on an agar medium with or without neutralizing agent. Readings are taken after 48 hours of incubation at 37° C.

[2] = tested on: Encapsulated klebsiella pneumoniae R030; test: Bactericidal activity (MBC), strain 2; assay type: cell-based; conditions: 20 min, strain 2, 20 minutes of contact, read-out: Minimum bactericidal concentration (MBC)
Excerpt: as §1, §2, §3
2--Encapsulated klebsiella pneumoniae R030;
as §4, §5, §6, §7

[3] = tested on: Pseudomonas aeruginosa CNCM A22; test: Bactericidal activity (MBC), strain 3; assay type: cell-based; conditions: CNCMA22, 20 min, strain 3, 20 minutes of contact, read-out: Minimum bactericidal concentration (MBC)
Excerpt: as §1, §2, §3
3--Pseudomonas aeruginosa CNCM A22;
as §4, §5, §6, §7

[4] = tested on: Streptococcus faecalis CNCM 5855; test: Bactericidal activity (MBC), strain 4; assay type: cell-based; conditions: Enterococcus faecalis, CNCM5855, 20 min; strain 4, 20 minutes of contact; read-out: Minimum bactericidal concentration (MBC)
Excerpt: as §1, §2, §3
4--Streptococcus faecalis CNCM 5855;
as §4, §5, §6, §7

[5] = tested on: Staphylococcus aureus CNCM 53154; test: Bactericidal activity (MBC), strain 5; assay type: cell-based; conditions: CNCM53154, 20 min, strain 5, 20 minutes of contact, read-out: Minimum bactericidal concentration (MBC)
Excerpt: as §1, §2, §3
5--Staphylococcus aureus CNCM 53154.
as §4, §5, §6, §7

guinea-pig skin [6] = test: Preliminary skin tolerance in the guinea-pig; assay type: in vivo; conditions: 0.2 ml on shorn skin once a day, six days out of seven, three weeks
Method: (§8) The tolerance of the products according to the invention was tested in the guinea-pig. The animals are shorn on both sides of the middle line of the back, the shearing being kept up every other day. Batches of 6 animals receive, on the shorn part, 0.2 ml of an aqueous or alcoholic solution of the product according to the invention. When these products are in alcoholic solution, one control batch of animals receives the alcohol on one side.
To study the preliminary skin tolerance, the treatment is applied once a day, six days out of seven, for three weeks. The observations made of the skin are concerned with the presence of erythema, skin eruptions or hyperkeratosis, the intensity of which is graduated according to a preset scale.

guinea-pig skin [7] = test: Skin sensitization test in the guinea-pig; assay type: in vivo; conditions: one week treatment after two weeks' rest
Method: as §8, with “side. The skin sensitization test is performed on the same animals after two weeks' rest. The treatment lasts one week, it is identical to the preceding one. The evaluation is based on the same criteria and on the same scale as used to determine the local tolerance.” for “side.”

guinea-pig = test: Phototoxic or photoallergic effect on the guinea-pig; assay type: in vivo
Excerpt: The products according to the invention have also been tested for a phototoxic or photoallergic effect on the guina-pig. The technique used is that of J. Unkovic, G. Mazue and J. Girard, in "Sciences et Techniques de l'Animal de Laboratoire", 1983, 8 (3), 149-160. This is an adaptation of the techniques described by L. C. Harber et al., Arch. Dermatol., 1967, 96, 646-656 and L. J. Vinson et al., Arch. Dermatol., 1966, 17, 123-130.

[8] = Acute toxicity by oral route in mice; conditions: mouse, in vivo, per os, male CD1 mice, 14 days observation
Method: Acute toxicity was tested by oral route in mice. This test was carried out with male mice of CD1 strain, obtained from the Charles Reever breeding farm. Each batch was composed of 5 animals of body weight varying between 24 and 30 g kept in the same cage. The animals were kept fasting for 6 hours before the treatment. For every test, the product, placed in suspension in a 10% solution of gum arabic, was administered by forcible feeding with an oesophageal probe. Food was then served to the animals 4 hours after the forcible feeding and the animals were kept under observation for a period of 14 days after the administration. During that period, the death rate is recorded for each batch of animals used in the experiment and, wherever possible, the LD50 is determined by the method of J. T. Litchfield and F. Wilcoxon, J. Pharmacol. 1949, 95, 99-113.
The results are given in mg of substance tested per kg of body weight. They are compiled in Table III below.

[9] = tested on: Candida albicans CNCM 1180; test: Antifungal activity (MFC), strain 1; assay type: cell-based; conditions: 20 min; yeast strain 1; read-out: Minimum fongicidal concentration (MFC)
Excerpt: as §2, §7
(§9) The antifungal activity of the products according to the invention was also determined with the aforedescribed method.
(§10) The fungal strains selected for the analysis are:
1--Candida albicans CNCM 1180;
(§11) These strains are supported on a Sabouraud Dextrose agar medium commercialized by Difco; the technique used is the same as that used in the analysis of the antibacterial activity. After 48 hours of culture at 37° C., the microbial growth is collected with glass beads and 5 ml of diluent containing 1 g of tryptone and 8.5 g of sodium chloride in 1000 ml of distilled water; 5 ml of the diluent are then added. […] A 1/100th dilution of this suspension, observed between slides under a microscope 40-lens, should show 10 cells per frame, this corresponding to 1,000,000 yeasts per ml.

Candida tropicalis 3834 = test: Antifungal activity (MFC), strain 2; assay type: cell-based; conditions: 20 min; yeast strain 2; read-out: Minimum fongicidal concentration (MFC)
Excerpt: as §2, §7, §9, §10
2--Candida tropicalis 3834;
as §11

Candida parakruzei 3918 = test: Antifungal activity (MFC), strain 3; assay type: cell-based; conditions: 20 min; yeast strain 3; read-out: Minimum fongicidal concentration (MFC)
Excerpt: as §2, §7, §9, §10
3--Candida parakruzei 3918;
as §11

[10] = tested on: Torulopsis glabrata 072023; test: Antifungal activity (MFC), strain 4; assay type: cell-based; conditions: 20 min; yeast strain 4; read-out: Minimum fongicidal concentration (MFC)
Excerpt: as §2, §7, §9, §10, §11

lymphoma cells of mice = conditions: cited from earlier work

SMILES | MBC [1] | MBC [2] | MBC [3] | MBC [4] | MBC [5] | products found to have a bad tolerance (guinea-pig skin [6]) | products found to have a sensibilizing effect (guinea-pig skin [7]) | products found to have a phototoxic or photoallergic effect (guinea-pig) | LD50 at 336 h [8] | MFC [9] | MFC (Candida tropicalis 3834) | MFC (Candida parakruzei 3918) | MFC [10] | effect on the cellular division of the lymphoma cells (lymphoma cells of mice)
CN(C)CCCCCCC(CO)c1cccc2ccccc12 (centres unmarked) [SR 43 727 A] | 20 µg/mL (≈ 66.8 µM) | 50 µg/mL (≈ 167 µM) | 50 µg/mL (≈ 167 µM) | 20 µg/mL (≈ 66.8 µM) | 200 µg/mL (≈ 668 µM) | None | None | None | 580 mg/kg |  |  |  |  | 
OCC(CCN1CCCCCC1)c1ccc2ccccc2c1 (centres unmarked) [SR 43 270 A] | 1000 µg/mL (≈ 3360 µM) | 1000 µg/mL (≈ 3360 µM) | 1000 µg/mL (≈ 3360 µM) | 2000 µg/mL (≈ 6720 µM) | 1000 µg/mL (≈ 3360 µM) | None | None | None |  | 500 µg/mL (≈ 1680 µM) | 1000 µg/mL (≈ 3360 µM) | 1000 µg/mL (≈ 3360 µM) | 5000 µg/mL (≈ 16800 µM) | 
CN(C)CCC(CO)c1cccc2ccccc12 (centres unmarked) [SR 42 643 A] | 5000 µg/mL (≈ 20500 µM) | 5000 µg/mL (≈ 20500 µM) | 1000 µg/mL (≈ 4110 µM) | 2000 µg/mL (≈ 8220 µM) | 1000 µg/mL (≈ 4110 µM) | None | None | None | 400 mg/kg |  |  |  |  | 
CC1CCN(CCCCCCC(CO)c2cccc3ccccc23)CC1 (centres unmarked) [SR 43 293 A] | 200 µg/mL (≈ 566 µM) | 200 µg/mL (≈ 566 µM) | 200 µg/mL (≈ 566 µM) | 200 µg/mL (≈ 566 µM) | 200 µg/mL (≈ 566 µM) | None | None | None | ≤ 250 mg/kg | 500 µg/mL (≈ 1410 µM) | 200 µg/mL (≈ 566 µM) | 500 µg/mL (≈ 1410 µM) | 1000 µg/mL (≈ 2830 µM) | 
OCC(CCN1CCC(Cc2ccccc2)CC1)c1cccc2ccccc12 (centres unmarked) [SR 43 383 A] | 100 µg/mL (≈ 268 µM) | 100 µg/mL (≈ 268 µM) | 100 µg/mL (≈ 268 µM) | 100 µg/mL (≈ 268 µM) | 100 µg/mL (≈ 268 µM) | None | None | None | 1180 mg/kg | 100 µg/mL (≈ 268 µM) | 100 µg/mL (≈ 268 µM) | 100 µg/mL (≈ 268 µM) | 500 µg/mL (≈ 1340 µM) | 
Cl.OCC(CCCCCCN1CCCCC1)c1cccc2ccccc12 (centres unmarked) [SR 43 157 A, 8-piperidino-2-(1-naphthyl)-octanol hydrochloride] | 200 µg/mL | 200 µg/mL | 100 µg/mL | 200 µg/mL | 200 µg/mL | None | None | None |  | 300 µg/mL | 300 µg/mL | 300 µg/mL | 1000 µg/mL | 
OCCc1ccc2ccccc2c1 [2-naphtyl ethanol] |  |  |  |  |  |  |  |  |  |  |  |  |  | inhibits the cellular division of the lymphoma cells of mice
CC(C)N(CCC(CO)c1cccc2ccccc12)Cc1ccccc1 (centres unmarked) [SR 43 292 A] | 300 µg/mL (≈ 863 µM) | 300 µg/mL (≈ 863 µM) | 300 µg/mL (≈ 863 µM) | 300 µg/mL (≈ 863 µM) | 300 µg/mL (≈ 863 µM) | None | None | None | 500 to 750 mg/kg | 1000 µg/mL (≈ 2880 µM) | 1000 µg/mL (≈ 2880 µM) | 1000 µg/mL (≈ 2880 µM) | 2000 µg/mL (≈ 5760 µM) | 
OCC(CCN1CCCCC1)c1cccc2ccccc12 (centres unmarked) [SR 43 077 A] | 600 µg/mL (≈ 2120 µM) | 600 µg/mL (≈ 2120 µM) | 800 µg/mL (≈ 2820 µM) | 600 µg/mL (≈ 2120 µM) | 600 µg/mL (≈ 2120 µM) | None | None | None | 300 to 400 mg/kg | 1000 µg/mL (≈ 3530 µM) | 1000 µg/mL (≈ 3530 µM) | 1000 µg/mL (≈ 3530 µM) | 5000 µg/mL (≈ 17600 µM) | 
